Measurements reported in ChEMBL document CHEMBL1201862, “PubChem BioAssay data set” (2004).
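Five concentrations, 48 hours, 96-well plates. Abbreviation: GI50, concentration required for 50% inhibition of growth.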 Calls of active or inactive are those of the source. Cut-off read from the data, not from the text of the source: active = GI50 up to about 1.1 µM and inactive = higher.

Tests used:
Experiment in all cases: NCI tumour cell line growth inhibition, 48 h
[1] = tested on: MDA-N
[2] = tested on: PC-3
[3] = tested on: SK-MEL-28
[4] = tested on: K562
[5] = tested on: SK-MEL-2
[6] = tested on: A549
[7] = tested on: UO-31
[8] = tested on: HT-29
[9] = tested on: SF-539
[10] = tested on: MCF7
[11] = tested on: NCI-H460
[12] = tested on: MOLT-4
[13] = tested on: ACHN
[14] = tested on: HOP-92
[15] = tested on: SF-295
[16] = tested on: Hs-578T
[17] = tested on: SNB-19
[18] = tested on: A498
[19] = tested on: T47D
[20] = tested on: U-251

| Compound | GI50 [1] | GI50 [2] | GI50 [3] | GI50 [4] | GI50 [5] | GI50 [6] | GI50 [7] | GI50 [8] | GI50 [9] | GI50 [10] | GI50 [11] | GI50 [12] | GI50 [13] | GI50 [14] | GI50 [15] | GI50 [16] | GI50 [17] | GI50 [18] | GI50 [19] | GI50 [20] |
| --- | --- | --- | --- | --- | --- | --- | --- | --- | --- | --- | --- | --- | --- | --- | --- | --- | --- | --- | --- | --- |
| COc1cc(S(=O)(=O)Nc2ccc(-c3csc(N4C(=O)CSC4c4cccs4)n3)cc2)ccc1Cl (configuration not stated) | 29.4 µM (inactive) | 24.9 µM (inactive) | 19.9 µM (inactive) | 22.6 µM (inactive) | 20.5 µM (inactive) | 86.9 µM (inactive) | 57.3 µM (inactive) | 39.8 µM (inactive) | 25.7 µM (inactive) | 16.4 µM (inactive) | 29.3 µM (inactive) | 8.67 µM (inactive) | > 100 µM (inactive) | 23.7 µM (inactive) | > 100 µM (inactive) | 30.3 µM (inactive) | 33.3 µM (inactive) | 43.6 µM (inactive) | – | – |
| CCn1c(=O)c2c3ccc(OC)cc3[nH]c2c2ccc(OC)cc21 | 62.8 µM (inactive) | 39.2 µM (inactive) | 63.1 µM (inactive) | 25.7 µM (inactive) | – | 59.7 µM (inactive) | 47.9 µM (inactive) | 38.3 µM (inactive) | 52.5 µM (inactive) | 50.1 µM (inactive) | – | 22.6 µM (inactive) | 55.5 µM (inactive) | > 100 µM (inactive) | 67.1 µM (inactive) | 40.7 µM (inactive) | > 100 µM (inactive) | 67.6 µM (inactive) | 24.6 µM (inactive) | > 100 µM (inactive) |
| O=C(CC1C=CCS1(=O)=O)NCc1ccccc1 (configuration not stated) | > 100 µM (inactive) | > 100 µM (inactive) | > 100 µM (inactive) | > 100 µM (inactive) | – | > 100 µM (inactive) | > 100 µM (inactive) | > 100 µM (inactive) | > 100 µM (inactive) | > 100 µM (inactive) | > 100 µM (inactive) | > 100 µM (inactive) | > 100 µM (inactive) | > 100 µM (inactive) | > 100 µM (inactive) | > 100 µM (inactive) | > 100 µM (inactive) | – | > 100 µM (inactive) | > 100 µM (inactive) |
| O=C1/C(=C/c2ccc(O)cc2)CCC1CNc1ccc(Cl)cc1 (configuration not stated) | 6.53 µM (inactive) | 1.42 µM (inactive) | 9.95 µM (inactive) | 0.25 µM (active) | 14.4 µM (inactive) | 7.01 µM (inactive) | 3.01 µM (inactive) | 1.53 µM (inactive) | 6.37 µM (inactive) | 1.34 µM (inactive) | 4.15 µM (inactive) | 1.71 µM (inactive) | 0.76 µM (active) | 14.7 µM (inactive) | 2.88 µM (inactive) | 17.7 µM (inactive) | 15.2 µM (inactive) | 15 µM (inactive) | – | 5.7 µM (inactive) |
| COc1ccc(N2C(=O)C3c4[nH]c5ccc(C)cc5c4C4CCC(C(C)(C)C)CC4C3C2=O)cc1 (configuration not stated) | > 10 µM (inactive) | 24.1 µM (inactive) | 11.5 µM (inactive) | 13.4 µM (inactive) | – | 6.9 µM (inactive) | 17.2 µM (inactive) | 12.7 µM (inactive) | 15.6 µM (inactive) | 33 µM (inactive) | 6.22 µM (inactive) | 12.9 µM (inactive) | 7.64 µM (inactive) | – | 5.48 µM (inactive) | 3.64 µM (inactive) | 22.6 µM (inactive) | – | 35.2 µM (inactive) | 3.85 µM (inactive) |
| C[N+](C)([O-])C12CC3CC(CC(C3)C1)C2 | 31.8 µM (inactive) | 22.4 µM (inactive) | 32.4 µM (inactive) | 29.4 µM (inactive) | 22.6 µM (inactive) | 25.8 µM (inactive) | 13.9 µM (inactive) | 35.6 µM (inactive) | 23.4 µM (inactive) | 33.1 µM (inactive) | 43.7 µM (inactive) | 29.3 µM (inactive) | 26.4 µM (inactive) | – | 30 µM (inactive) | 55.6 µM (inactive) | 46.3 µM (inactive) | 22 µM (inactive) | 26.9 µM (inactive) | 37.4 µM (inactive) |
| O=C1C(=O)N(C2CCCCC2)C(=S)N1C1CCCCC1 | > 100 µM (inactive) | > 100 µM (inactive) | > 100 µM (inactive) | > 100 µM (inactive) | > 100 µM (inactive) | > 100 µM (inactive) | > 100 µM (inactive) | > 100 µM (inactive) | > 100 µM (inactive) | – | > 100 µM (inactive) | > 100 µM (inactive) | > 100 µM (inactive) | > 100 µM (inactive) | > 100 µM (inactive) | > 100 µM (inactive) | > 100 µM (inactive) | > 100 µM (inactive) | > 100 µM (inactive) | > 100 µM (inactive) |
| CCC1(CC)C(=O)NN(C(=O)c2ccc(Cl)cc2)C1=O | > 100 µM (inactive) | > 100 µM (inactive) | > 100 µM (inactive) | > 100 µM (inactive) | > 100 µM (inactive) | > 100 µM (inactive) | > 100 µM (inactive) | > 100 µM (inactive) | – | > 100 µM (inactive) | > 100 µM (inactive) | > 100 µM (inactive) | > 100 µM (inactive) | – | > 100 µM (inactive) | > 100 µM (inactive) | > 100 µM (inactive) | – | > 100 µM (inactive) | > 100 µM (inactive) |
| CCOP(=O)(OCC)C(C)(CC)NC (configuration not stated) | > 100 µM (inactive) | – | > 100 µM (inactive) | > 100 µM (inactive) | > 100 µM (inactive) | > 100 µM (inactive) | > 100 µM (inactive) | > 100 µM (inactive) | > 100 µM (inactive) | > 100 µM (inactive) | > 100 µM (inactive) | > 100 µM (inactive) | > 100 µM (inactive) | > 100 µM (inactive) | > 100 µM (inactive) | > 100 µM (inactive) | > 100 µM (inactive) | > 100 µM (inactive) | > 100 µM (inactive) | > 100 µM (inactive) |
| O=C(O)C/C=C/CC(=O)O | > 100 µM (inactive) | > 100 µM (inactive) | > 100 µM (inactive) | 67.1 µM (inactive) | > 100 µM (inactive) | > 100 µM (inactive) | > 100 µM (inactive) | > 100 µM (inactive) | – | > 100 µM (inactive) | > 100 µM (inactive) | > 100 µM (inactive) | > 100 µM (inactive) | – | > 100 µM (inactive) | > 100 µM (inactive) | > 100 µM (inactive) | > 100 µM (inactive) | > 100 µM (inactive) | > 100 µM (inactive) |
| O=C1c2ccccc2-c2c1c(-c1ccc(O)cc1O)nc1ccc3ccccc3c21 | > 100 µM (inactive) | > 100 µM (inactive) | > 100 µM (inactive) | > 100 µM (inactive) | > 100 µM (inactive) | > 100 µM (inactive) | > 100 µM (inactive) | > 100 µM (inactive) | > 100 µM (inactive) | 79.4 µM (inactive) | > 100 µM (inactive) | > 100 µM (inactive) | > 100 µM (inactive) | – | > 100 µM (inactive) | 21.1 µM (inactive) | > 100 µM (inactive) | > 100 µM (inactive) | > 100 µM (inactive) | 75.2 µM (inactive) |
| CCOC(=O)c1nc2ccc(C(F)(F)F)cc2nc1Nc1cc(OC)c(OC)c(OC)c1 | > 100 µM (inactive) | > 100 µM (inactive) | > 100 µM (inactive) | > 100 µM (inactive) | – | > 100 µM (inactive) | > 100 µM (inactive) | > 100 µM (inactive) | > 100 µM (inactive) | > 100 µM (inactive) | > 100 µM (inactive) | > 100 µM (inactive) | > 100 µM (inactive) | > 100 µM (inactive) | > 100 µM (inactive) | > 100 µM (inactive) | > 100 µM (inactive) | > 100 µM (inactive) | > 100 µM (inactive) | – |
| CC(=O)O[C@H]1C(=O)[C@@]2(C)[C@H]([C@H](OC(=O)c3ccccc3)[C@]3(O)C[C@H](OC(=O)[C@H](O)[C@@H](NC(=O)c4ccc(N(C)C)cc4)c4ccccc4)C(C)=C1C3(C)C)[C@]1(OC(C)=O)CO[C@@H]1C[C@@H]2O | < 0.005 µM (active) | < 0.005 µM (active) | > 50 µM (inactive) | < 0.005 µM (active) | 0.05 µM (active) | < 0.005 µM (active) | 1.54 µM (inactive) | < 0.005 µM (active) | < 0.005 µM (active) | < 0.005 µM (active) | < 0.005 µM (active) | 0.00631 µM (active) | 0.0718 µM (active) | > 28.8 µM (inactive) | 0.0119 µM (active) | < 0.005 µM (active) | < 0.005 µM (active) | 0.0428 µM (active) | – | < 0.005 µM (active) |
| CC(=O)N[C@H]1CCCC[C@@H]1OC(C)=O | > 100 µM (inactive) | > 100 µM (inactive) | > 100 µM (inactive) | > 100 µM (inactive) | > 100 µM (inactive) | – | – | > 100 µM (inactive) | – | > 100 µM (inactive) | > 100 µM (inactive) | > 100 µM (inactive) | > 100 µM (inactive) | > 100 µM (inactive) | > 100 µM (inactive) | > 100 µM (inactive) | – | > 100 µM (inactive) | > 100 µM (inactive) | > 100 µM (inactive) |
| Cc1ccc(S(=O)(=O)N/N=C2/CCC3(O)CC2(C)CCC2[C@H]3CC2(C)C)cc1 (some centres not stated) | 30.7 µM (inactive) | 12.5 µM (inactive) | 24.9 µM (inactive) | 16.9 µM (inactive) | 23.8 µM (inactive) | 27.3 µM (inactive) | 25.7 µM (inactive) | 33.6 µM (inactive) | – | 35.5 µM (inactive) | 22.8 µM (inactive) | 11.4 µM (inactive) | 29.8 µM (inactive) | 29.2 µM (inactive) | 25.1 µM (inactive) | 35.5 µM (inactive) | 37.7 µM (inactive) | – | > 100 µM (inactive) | 17.5 µM (inactive) |
